Measurements published in the NIST ThermoML archive (doi:10.1021/je301284x).
± gives the expanded uncertainty stated by the source.

What was measured:
[1] = for mass density / electrical conductivity / viscosity: 101.33 kPa, Liquid; for mass density: Vibrating tube method; for viscosity: Concentric cylinders viscometry; for Normal melting temperature: Crystal; for Normal melting temperature / Glass transition temperature: DTA
[2] = Molar enthalpy of transition or fusion; conditions: Crystal; DSC

Structure (SMILES)	mass density ([1]; 293.15 K) [kg/m3]	mass density ([1]; 298.15 K) [kg/m3]	electrical conductivity ([1]; 303.15 K) [S/m]	viscosity ([1]; 303.15 K) [mPa·s]	mass density ([1]; 303.15 K) [kg/m3]	mass density ([1]; 308.15 K) [kg/m3]	mass density ([1]; 313.15 K) [kg/m3]	electrical conductivity ([1]; 323.15 K) [S/m]	viscosity ([1]; 323.15 K) [mPa·s]	electrical conductivity ([1]; 343.15 K) [S/m]	viscosity ([1]; 343.15 K) [mPa·s]	electrical conductivity ([1]; 363.15 K) [S/m]	viscosity ([1]; 363.15 K) [mPa·s]	electrical conductivity ([1]; 383.15 K) [S/m]	viscosity ([1]; 383.15 K) [mPa·s]	electrical conductivity ([1]; 403.15 K) [S/m]	electrical conductivity ([1]; 423.15 K) [S/m]	electrical conductivity ([1]; 443.15 K) [S/m]	Normal melting temperature [1] [°C]	Molar enthalpy of transition or fusion [2] [kcal/mol]	further results
CC[NH+](C)CC.O=S(=O)([O-])C(F)(F)F [diethylmethylammonium trifluoromethanesulfonate]	1292 ± 27	1284 ± 27	0.833 ± 0.017	36.9 ± 1.2	1277 ± 27	1270 ± 27	1262 ± 26	1.45 ± 0.03	19.4 ± 0.6	2.15 ± 0.04	12.1 ± 0.4	3.15 ± 0.06	8.13 ± 0.26	3.91 ± 0.08	5.82 ± 0.19	4.73 ± 0.09	5.46 ± 0.11	5.97 ± 0.12	-6.00 ± 1	3.82 ± 0.478	mass density ([1]; 288.15 K): 1299 ± 27 kg/m3; viscosity ([1]; 403.15 K): 4.41 ± 0.14 mPa·s; viscosity ([1]; 423.15 K): 3.48 ± 0.11 mPa·s
CCC[NH+](CC)CC.O=S(=O)([O-])C(F)(F)F [N,N-diethylpropan-1-aminium trifluoromethanesulfonate]	1229 ± 26	1222 ± 26	0.384 ± 0.008	54.3 ± 1.8	1215 ± 25	1208 ± 25	1201 ± 25	0.71 ± 0.014	26.8 ± 0.9	1.13 ± 0.02	15.3 ± 0.5	1.71 ± 0.03	9.76 ± 0.32	2.22 ± 0.04	6.71 ± 0.22	2.88 ± 0.06	3.57 ± 0.07	4.31 ± 0.09	-14.00 ± 1	5.02 ± 0.478	mass density ([1]; 288.15 K): 1237 ± 26 kg/m3; viscosity ([1]; 403.15 K): 4.87 ± 0.16 mPa·s; viscosity ([1]; 423.15 K): 3.73 ± 0.12 mPa·s
C=CC[NH+](C)CC=C.O=S(=O)([O-])C(F)(F)F	1261 ± 26	1253 ± 26	0.469 ± 0.009	38.5 ± 1.3	1246 ± 26	1239 ± 26	1231 ± 26	0.893 ± 0.018	19.7 ± 0.6	1.43 ± 0.03	11.6 ± 0.4	2.06 ± 0.04	7.61 ± 0.25	2.74 ± 0.06	5.39 ± 0.18	3.54 ± 0.07	4.39 ± 0.09	5.21 ± 0.1	-19.00 ± 1	2.63 ± 0.239	mass density ([1]; 288.15 K): 1268 ± 27 kg/m3; Glass transition temperature [1]: -88.00 ± 5 °C
CCC[NH+](C)CCC.O=S(=O)([O-])C(F)(F)F [N-methyl-N-propylpropan-1-aminium trifluoromethanesulfonate]	1218 ± 25	1211 ± 25	0.415 ± 0.008	48.7 ± 1.6	1203 ± 25	1196 ± 25	1189 ± 25	0.772 ± 0.015	23.9 ± 0.8	1.23 ± 0.03	13.6 ± 0.4	1.81 ± 0.04	8.63 ± 0.28	2.48 ± 0.05	5.96 ± 0.19	3.18 ± 0.06	4.04 ± 0.08	4.88 ± 0.1	17.00 ± 1	3.35 ± 0.478	viscosity ([1]; 403.15 K): 4.4 ± 0.14 mPa·s; viscosity ([1]; 423.15 K): 3.44 ± 0.11 mPa·s
C=CC[NH+](C)C.O=S(=O)([O-])C(F)(F)F [N,N-dimethylprop-2-en-1-aminium trifluoromethanesulfonate]	1311 ± 28	1303 ± 27	0.968 ± 0.019	28.8 ± 0.9	1295 ± 27	1288 ± 27	1280 ± 27	1.74 ± 0.04	16.4 ± 0.5	2.65 ± 0.05	10.4 ± 0.3	3.73 ± 0.07	7.11 ± 0.23	4.92 ± 0.1	5.18 ± 0.17	6.19 ± 0.12	7.48 ± 0.15	8.82 ± 0.18	16.00 ± 1	5.02 ± 0.478	mass density ([1]; 288.15 K): 1318 ± 28 kg/m3; viscosity ([1]; 403.15 K): 3.95 ± 0.13 mPa·s; viscosity ([1]; 423.15 K): 3.17 ± 0.1 mPa·s
C=CC[NH+](CC)CC.O=S(=O)([O-])C(F)(F)F [N,N-diethylprop-2-en-1-aminium trifluoromethanesulfonate]	1263 ± 26	1255 ± 26	0.419 ± 0.008	51 ± 1.7	1247 ± 26	1240 ± 26	1232 ± 26	0.785 ± 0.016	25.5 ± 0.8	1.26 ± 0.03	14.9 ± 0.5	1.81 ± 0.04	9.64 ± 0.31	2.43 ± 0.05	6.7 ± 0.22	3.17 ± 0.06	3.91 ± 0.08	4.71 ± 0.09	-14.00 ± 1	5.02 ± 0.478	mass density ([1]; 288.15 K): 1270 ± 27 kg/m3; viscosity ([1]; 403.15 K): 4.94 ± 0.16 mPa·s; viscosity ([1]; 423.15 K): 3.87 ± 0.13 mPa·s; Glass transition temperature [1]: -99.00 ± 6 °C
CCC[NH+](C)C.O=S(=O)([O-])C(F)(F)F [N,N-dimethylpropan-1-aminium trifluoromethanesulfonate]	1284 ± 27	1276 ± 27	0.901 ± 0.018	33.2 ± 1.1	1269 ± 27	1262 ± 26	1254 ± 26	1.57 ± 0.03	18 ± 0.6	2.39 ± 0.05	11 ± 0.4	3.25 ± 0.07	7.42 ± 0.24	4.29 ± 0.09	5.32 ± 0.17	5.3 ± 0.11	6.4 ± 0.13	7.68 ± 0.15	20.00 ± 1	4.78 ± 0.478	mass density ([1]; 288.15 K): 1291 ± 27 kg/m3; viscosity ([1]; 403.15 K): 4.04 ± 0.13 mPa·s; viscosity ([1]; 423.15 K): 3.19 ± 0.1 mPa·s
